In the supplement of paper PMC10307832:

How the values were obtained:
Assay in all cases: relative viability (nuclei count vs DMSO), 5 days (fraction); higher = more cells survive
Mirin + Lapatinib = compound: N=C1NC(=O)/C(=C/c2ccc(O)cc2)S1 [Mirin] + CS(=O)(=O)CCNCc1ccc(-c2ccc3ncnc(Nc4ccc(OCc5cccc(F)c5)c(Cl)c4)c3c2)o1 [Lapatinib] (partner 2 µM)
Summary of the method: (§1)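 Dosing by pin tool came one day after lung cancer cell lines were seeded in 1536-well plates, using either one drug or a fixed anchor-drug dose plus five library-drug doses (not always all listed) in √10 steps. After 5 days, nuclei were counted on 4× images. Relative viability is treated-well nuclei count divided by vehicle-well nuclei count, and values are medians of duplicate plates.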

Mirin + Foretinib = compound: N=C1NC(=O)/C(=C/c2ccc(O)cc2)S1 [Mirin] + COc1cc2c(Oc3ccc(NC(=O)C4(C(=O)Nc5ccc(F)cc5)CC4)cc3F)ccnc2cc1OCCCN1CCOCC1 [Foretinib] (partner 0.25 µM)
Summary of the method: as §1

[1] = compound: CCn1c(-c2nonc2N)nc2cnc(Oc3cccc(NC(=O)c4ccc(OCCN5CCOCC5)cc4)c3)cc21 + CC(C)C[C@H](NC(=O)[C@H](Cc1ccccc1)NC(=O)c1cnccn1)B(O)O [Bortezomib] (partner 0.002 µM)
Summary of the method: as §1

Mirin + Crizotinib = compound: N=C1NC(=O)/C(=C/c2ccc(O)cc2)S1 [Mirin] + C[C@@H](Oc1cc(-c2cnn(C3CCNCC3)c2)cnc1N)c1c(Cl)ccc(F)c1Cl [Crizotinib] (partner 1 µM)
Summary of the method: as §1

Cell Line	relative viability (Mirin + Lapatinib; first compound 0.25 µM)	relative viability (Mirin + Lapatinib; first compound 0.7906 µM)	relative viability (Mirin + Lapatinib; first compound 2.5 µM)	relative viability (Mirin + Lapatinib; first compound 7.906 µM)	relative viability (Mirin + Lapatinib; first compound 25 µM)	relative viability (Mirin + Foretinib; first compound 0.25 µM)	relative viability (Mirin + Foretinib; first compound 0.7906 µM)	relative viability (Mirin + Foretinib; first compound 2.5 µM)	relative viability (Mirin + Foretinib; first compound 7.906 µM)	relative viability (Mirin + Foretinib; first compound 25 µM)	relative viability ([1]; first compound 0.04 µM)	relative viability ([1]; first compound 0.1265 µM)	relative viability ([1]; first compound 0.4 µM)	relative viability ([1]; first compound 1.265 µM)	relative viability ([1]; first compound 4 µM)	relative viability (Mirin + Crizotinib; first compound 0.25 µM)	relative viability (Mirin + Crizotinib; first compound 0.7906 µM)	relative viability (Mirin + Crizotinib; first compound 2.5 µM)	relative viability (Mirin + Crizotinib; first compound 7.906 µM)	relative viability (Mirin + Crizotinib; first compound 25 µM)
NCI-H2347	0.915	0.944	0.981	0.956	0.966	1.08	0.652	1.17	0.683	0.879	1.1	0.959	0.792	0.49	0.649	0.759	0.68	0.693	0.502	0.631
NCI-H647	1.31	1.09	1.07	1.1	0.427	1.4	1.27	1.14	1.32	0.946	0.847	0.654	0.614	0.536	0.631	1.07	1.3	1.24	1.08	0.596
NCI-H1563	1.05	1.09	1.09	0.867	0.853	0.962	0.974	0.865	1.03	0.875	0.793	0.821	0.669	0.753	0.603	0.914	0.836	0.837	0.96	0.888
NCI-H520	0.97	0.605	0.857	0.551	0.391	0.742	0.784	0.874	0.874	0.439	0.749	0.614	0.537	0.349	0.239	0.993	0.715	0.715	0.631	0.377
HCC-366	1.06	0.957	1.07	0.986	0.752	0.855		0.888	0.997	0.869	1.32	1.11	0.151	0.0688	0.0348	0.464	0.62	0.44	0.443	0.413
NCI-H2085	0.828	0.791	0.823	0.807	0.628	0.948	0.999	0.941	1.1	1	1.11	1.01	0.86	0.872	0.861	0.798	0.853	0.878	0.704	0.923
PC-3 [JPC-3]	0.52	0.469	0.462	0.455	0.491	1.05	1.13	1.02	1.14	1.3	0.958	0.867	0.727	0.772	0.63	1	1.1	1.02	1.03	1.11
HOP-62	1.05	1.16	1.01		1.23	1.17	1.24	1.11	1.1	1.21	0.875	0.829	0.816	0.756	0.212	1.05	0.815	0.828		0.937
